Results taken from PubChem BioAssay (NCI).
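Following 48 hours of exposure in 96-well plates, responses at five concentrations were used to interpolate endpoints linearly. At the TGI there is no net growth.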

Assays:
Assay in all cases: NCI tumour cell line growth inhibition, 48 h
[1] = tested on: RPMI-8226 leukemia
[2] = tested on: A498 renal
[3] = tested on: DLD-1 colon
[4] = tested on: LOX IMVI melanoma
[5] = tested on: UACC-257 melanoma
[6] = tested on: DMS 273 small cell lung
[7] = tested on: SF-539 CNS
[8] = tested on: SNB-19 CNS
[9] = tested on: NCI-H23 lung
[10] = tested on: HCC-2998 colon
[11] = tested on: M19-MEL melanoma
[12] = tested on: P388/ADR leukemia
[13] = tested on: NCI-H226 lung
[14] = tested on: SW-620 colon
[15] = tested on: HT29 colon
[16] = tested on: DMS 114 small cell lung
[17] = tested on: SK-MEL-28 melanoma
[18] = tested on: HCT-15 colon
[19] = tested on: MOLT-4 leukemia
[20] = tested on: COLO 205 colon
[21] = tested on: SF-295 CNS
[22] = tested on: HOP-62 NSCLC
[23] = tested on: XF 498 CNS
[24] = tested on: KM12 colon
[25] = tested on: MCF7 breast
[26] = tested on: HOP-92 NSCLC
[27] = tested on: CCRF-CEM leukemia
[28] = tested on: U251 CNS
[29] = tested on: SF-268 CNS
[30] = tested on: HCT-116 colon
[31] = tested on: KM20L2 colon
[32] = tested on: NCI-H522 lung
[33] = tested on: EKVX NSCLC
[34] = tested on: NCI-H460 lung
[35] = tested on: UACC-62 melanoma
[36] = tested on: K-562 leukemia
[37] = tested on: RXF 393 renal
[38] = tested on: SK-MEL-5 melanoma
[39] = tested on: HL-60(TB) leukemia
[40] = tested on: SN12C renal
[41] = tested on: OVCAR-5 ovarian
[42] = tested on: SK-MEL-2 melanoma
[43] = tested on: P388 leukemia
[44] = tested on: NCI/ADR-RES ovarian
[45] = tested on: CAKI-1 renal
[46] = tested on: OVCAR-3 ovarian
[47] = tested on: A549 NSCLC
[48] = tested on: MALME-3M melanoma
[49] = tested on: OVCAR-8 ovarian
[50] = tested on: SN12K1 renal
[51] = tested on: SNB-75 CNS
[52] = tested on: HOP-18 NSCLC
[53] = tested on: IGROV1 ovarian
[54] = tested on: SK-OV-3 ovarian
[55] = tested on: OVCAR-4 ovarian
[56] = tested on: UO-31 renal
[57] = tested on: RXF-631 renal
[58] = tested on: TK-10 renal
[59] = tested on: ACHN renal
[60] = tested on: LXFL 529 NSCLC
[61] = tested on: 786-0 renal
[62] = tested on: M14 melanoma
[63] = tested on: SNB-78 CNS

`C=C1C(=O)O[C@@H]2[C@H](O)[C@@H](C)[C@@H]3C=CC(=O)[C@@]3(C)[C@H](OC(=O)C=C(C)C)[C@H]12` gave a TGI [1] of 0.975 µM, a TGI [2] of 4.65 µM and a TGI [3] of 0.878 µM. It also gave a TGI [4] of 2.25 µM, a TGI [5] of 4.74 µM and a TGI [6] of 3.24 µM. It also gave a TGI [7] of 0.596 µM, a TGI [8] of 17.2 µM and a TGI [9] of 2.88 µM. For the same compound, the TGI [10] was 3.23 µM, the TGI [11] was 2.7 µM and the TGI [12] was 0.272 µM. For the same compound, the TGI [13] was 4.17 µM, the TGI [14] was 1.18 µM and the TGI [15] was 3.82 µM. For the same compound, the TGI [16] was 6.57 µM, the TGI [17] was 1.81 µM and the TGI [18] was 0.667 µM. The TGI [19] was 0.725 µM, the TGI [20] was 1.67 µM and the TGI [21] was 7.27 µM. The TGI [22] was 11.4 µM, the TGI [23] was 2.63 µM and the TGI [24] was 3.78 µM. It also gave a TGI [25] of 1.81 µM, a TGI [26] of 2.21 µM and a TGI [27] of 0.461 µM. The TGI [28] was 3.5 µM, the TGI [29] was 3.59 µM and the TGI [30] was 1.72 µM. The TGI [31] was 5.12 µM, the TGI [32] was 0.4 µM and the TGI [33] was 5.5 µM. For the same compound, the TGI [34] was 6.02 µM, the TGI [35] was 1.87 µM and the TGI [36] was 0.518 µM. It also gave a TGI [37] of 1.33 µM, a TGI [38] of 3.78 µM and a TGI [39] of 0.412 µM. It also gave a TGI [40] of 2.27 µM, a TGI [41] of 4.67 µM and a TGI [42] of 2.84 µM. It also gave a TGI [43] of 0.483 µM, a TGI [44] of 6.42 µM and a TGI [45] of 1.74 µM. The TGI [46] was 2.15 µM, the TGI [47] was 10 µM and the TGI [48] was 1.25 µM. The TGI [49] was 8.53 µM, the TGI [50] was 1.75 µM and the TGI [51] was 7.86 µM. For the same compound, the TGI [52] was 3.09 µM, the TGI [53] was 4.48 µM and the TGI [54] was 7.91 µM. The TGI [55] was 4.92 µM and the TGI [56] was 7.23 µM.
For `N#C/C(=C\c1ccc(C(O)P(=O)(O)O)cc1)C(N)=O` (stereo not given), the TGI [57] was over 100 µM, the TGI [1] was over 100 µM and the TGI [2] was over 100 µM. It also gave a TGI [3] of over 100 µM, a TGI [4] of over 100 µM and a TGI [5] of over 100 µM. The TGI [6] was over 100 µM, the TGI [7] was over 100 µM and the TGI [58] was over 100 µM. The TGI [8] was over 100 µM, the TGI [9] was over 100 µM and the TGI [10] was over 100 µM. For the same compound, the TGI [11] was over 100 µM, the TGI [59] was over 100 µM and the TGI [13] was over 100 µM. The TGI [14] was over 100 µM, the TGI [15] was over 100 µM and the TGI [16] was over 100 µM. For the same compound, the TGI [60] was over 100 µM, the TGI [17] was over 100 µM and the TGI [61] was over 100 µM. It also gave a TGI [18] of over 100 µM, a TGI [19] of over 100 µM and a TGI [20] of over 100 µM. For the same compound, the TGI [21] was over 100 µM, the TGI [62] was over 100 µM and the TGI [22] was over 100 µM. It also gave a TGI [23] of over 100 µM, a TGI [24] of over 100 µM and a TGI [26] of over 100 µM. For the same compound, the TGI [27] was over 100 µM, the TGI [28] was over 100 µM and the TGI [29] was over 100 µM. It also gave a TGI [63] of over 100 µM, a TGI [30] of over 100 µM and a TGI [31] of over 100 µM. The TGI [32] was over 100 µM, the TGI [33] was over 100 µM and the TGI [34] was over 100 µM. The TGI [35] was over 100 µM, the TGI [36] was over 100 µM and the TGI [38] was over 100 µM. The TGI [39] was over 100 µM, the TGI [40] was over 100 µM and the TGI [42] was over 100 µM. For the same compound, the TGI [46] was over 100 µM, the TGI [47] was over 100 µM and the TGI [48] was over 100 µM. It also gave a TGI [49] of over 100 µM, a TGI [52] of over 100 µM and a TGI [53] of over 100 µM. It also gave a TGI [54] of over 100 µM, a TGI [55] of over 100 µM and a TGI [56] of over 100 µM.
